This note sets out measurements from US9067914B1, “Tropomyosin-related kinase (TRK) inhibitors” (Genzyme Corporation, priority 2013, dated 2015).

Where two headings read alike, the source gives them in different places.

One test has as its target TrkA (Homo sapiens (Human), UniProt P04629). In words: TrkA activity, off-chip mobility shift assay (LabChip 3000). Particulars: 55 μM ATP (ATP Km); n/d = none detected. It is filed as biochemical. From the text:
(§1) Reagents and consumables were purchased from Sigma Aldrich, Carna Biosciences, or Caliper Life Sciences. All assay reaction conditions for IC50 determinations were within the linear range with respect to time and enzyme concentration. […] The LabChip 3000 separates and measures the fluorescent signal of fluorescein labeled peptide substrate and fluorescein labeled peptide product present in each well. Results are expressed as percent conversion by measuring peak height for both the substrate and product and dividing the product peak height by the sum of peak heights for both substrate and product.

Another test concerns the target TrkB (Homo sapiens (Human), UniProt Q16620). As to the kind of experiment: TrkB activity, off-chip mobility shift assay (LabChip 3000). It is filed as biochemical.
Excerpt: as §1

Where [1] appears, read: 70 μM ATP (ATP Km), n/d = none detected.

Chain of TrkB (Q16620 32-822): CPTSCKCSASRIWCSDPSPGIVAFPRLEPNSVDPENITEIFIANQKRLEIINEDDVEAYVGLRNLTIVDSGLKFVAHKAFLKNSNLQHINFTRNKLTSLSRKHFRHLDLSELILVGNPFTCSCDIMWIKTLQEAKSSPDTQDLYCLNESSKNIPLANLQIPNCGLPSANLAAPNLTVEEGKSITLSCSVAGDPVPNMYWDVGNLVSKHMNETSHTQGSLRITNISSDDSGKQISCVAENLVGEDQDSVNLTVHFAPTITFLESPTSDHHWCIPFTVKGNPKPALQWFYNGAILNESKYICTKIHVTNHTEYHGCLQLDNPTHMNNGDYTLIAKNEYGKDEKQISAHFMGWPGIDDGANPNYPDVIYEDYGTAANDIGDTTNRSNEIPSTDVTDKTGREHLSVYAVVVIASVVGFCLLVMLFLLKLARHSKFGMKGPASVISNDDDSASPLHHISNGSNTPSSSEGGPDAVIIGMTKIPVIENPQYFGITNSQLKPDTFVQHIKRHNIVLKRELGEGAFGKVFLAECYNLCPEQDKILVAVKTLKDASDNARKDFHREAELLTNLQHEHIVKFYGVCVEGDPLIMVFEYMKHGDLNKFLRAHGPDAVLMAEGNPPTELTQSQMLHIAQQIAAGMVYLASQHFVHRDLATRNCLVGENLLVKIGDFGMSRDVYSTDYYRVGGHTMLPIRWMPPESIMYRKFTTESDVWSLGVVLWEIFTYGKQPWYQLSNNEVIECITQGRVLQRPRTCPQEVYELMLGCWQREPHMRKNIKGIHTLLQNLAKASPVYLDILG
Chain of TrkA (P04629 33-796): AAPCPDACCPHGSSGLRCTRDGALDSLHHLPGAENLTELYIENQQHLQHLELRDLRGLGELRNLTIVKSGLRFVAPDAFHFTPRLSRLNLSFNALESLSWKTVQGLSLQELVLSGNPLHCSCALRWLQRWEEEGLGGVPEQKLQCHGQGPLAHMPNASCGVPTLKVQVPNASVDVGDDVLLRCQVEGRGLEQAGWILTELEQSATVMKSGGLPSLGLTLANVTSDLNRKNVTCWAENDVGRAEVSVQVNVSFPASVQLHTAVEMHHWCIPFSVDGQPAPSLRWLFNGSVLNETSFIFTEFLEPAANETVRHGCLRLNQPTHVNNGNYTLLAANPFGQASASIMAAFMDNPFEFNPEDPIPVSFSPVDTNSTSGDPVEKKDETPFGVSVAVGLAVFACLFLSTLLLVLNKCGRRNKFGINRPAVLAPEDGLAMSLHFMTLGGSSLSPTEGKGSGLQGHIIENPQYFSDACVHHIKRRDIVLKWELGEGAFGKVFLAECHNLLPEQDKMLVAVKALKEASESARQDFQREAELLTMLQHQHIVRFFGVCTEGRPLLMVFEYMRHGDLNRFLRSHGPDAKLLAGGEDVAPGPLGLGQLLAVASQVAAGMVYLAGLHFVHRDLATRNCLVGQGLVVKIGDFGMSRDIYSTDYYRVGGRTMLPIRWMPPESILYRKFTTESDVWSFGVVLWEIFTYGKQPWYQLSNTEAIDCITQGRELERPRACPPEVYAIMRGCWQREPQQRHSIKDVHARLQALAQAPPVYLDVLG

With `COc1cc([C@H](C)n2c(N)nc3cc(-c4cnn(C)c4)cnc32)ccc1OCc1ccc(C(F)(F)F)cc1` (single isomer, unassigned) [Ex. 3-49-6a, 3-(1-(3-methoxy-4-((4-(trifluoromethyl)benzyl)oxy)phenyl)ethyl)-6-(1-methyl-1H-pyrazol-4-yl)-3H-imidazo[4,5-b]pyridin-2-amine], the IC50 on TrkA was found to be 0.0003 µM.

`COc1cc([C@@H](C)n2c(N)nc3cc(-c4cnn(C)c4)cnc32)ccc1OCc1ccc(C(F)(F)F)cc1` (single isomer, unassigned) [Ex. 3-49-6b, 3-(1-(3-methoxy-4-((4-(trifluoromethyl)benzyl)oxy)phenyl)ethyl)-6-(1-methyl-1H-pyrazol-4-yl)-3H-imidazo[4,5-b]pyridin-2-amine]: the IC50 at TrkA came to 0.005 µM.

On to `CCC(Oc1ccc(Cn2c(N)nc3cc(-c4cnn(C)c4)cnc32)cc1OC)c1ccc(OC)nc1` (stereo not drawn) [3-34, 3-(3-methoxy-4-(1-(6-methoxypyridin-3-yl)propoxy)benzyl)-6-(1-methyl-1H-pyrazol-4-yl)-3H-imidazo[4,5-b]pyridin-2-amine], for which the IC50 on TrkB (setting [1]) worked out at 0.026 µM; on TrkA it was 0.032 µM.

Take `COc1ccc(COc2ccc(Cn3c(N)nc4cc(-c5cnn(C)c5)ccc43)cc2OC)cc1` [Ex. 3-1, 1-(3-Methoxy-4-((4-methoxybenzyl)oxy)benzyl)-5-(1-methyl-1H-pyrazol-4-yl)-1H-benzo[d]imidazol-2-amine]: the IC50 was 0.0005 µM on TrkB (setting [1]) and 0.001 µM on TrkA.

`COc1ccc(COc2ccc(Cn3c(N)nc4cc(-c5cncnc5)ccc43)cc2OC)cc1` [Ex. 3-2-1, 1-(3-Methoxy-4-((4-methoxybenzyl)oxy)benzyl)-5-(pyrimidin-5-yl)-1H-benzo[d]imidazol-2-amine]: the figures for the IC50 at TrkB (setting [1]) and at TrkA were 0.023 µM and 0.086 µM, respectively.

As to `COc1ccc(COc2ccc(Cn3c(N)nc4cc(-c5ccncc5)ccc43)cc2OC)cc1` [Ex. 3-2-2, 1-(3-Methoxy-4-((4-methoxybenzyl)oxy)benzyl)-5-(pyridine-4-yl)-1H-benzo[d]imidazol-2-amine], the IC50 came to 0.004 µM at TrkB (setting [1]) and 0.008 µM on TrkA.

In the case of `COc1ccc(COc2ccc(Cn3c(N)nc4cc(-c5cnn(CCN6CCOCC6)c5)ccc43)cc2OC)cc1` [Ex. 3-2-3, 1-(3-Methoxy-4-((4-methoxybenzyl)oxy)benzyl)-5-(1-(2-morpholinoethyl)-1H-pyrazol-4-yl)-1H-benzo[d]imidazol-2-amine], the figures for the IC50 on TrkB (setting [1]) and at TrkA were 0.001 µM and 0.003 µM, respectively.

On to `COc1ccc(COc2ccc(Cn3c(N)nc4cc(-c5ccc(P(C)(C)=O)nc5)ccc43)cc2OC)cc1` [Ex. 3-3, (5-(2-Amino-1-(3-methoxy-4-((4-methoxybenzyl)oxy)benzyl)-1H-benzo[d]imidazol-5-yl)pyridin-2-yl)dimethylphosphine oxide], for which the IC50 on TrkB (setting [1]) is 0.006 µM; at TrkA, 0.007 µM.

For `COc1ccc(COc2ccc(Cn3cnc4cc(-n5cc(C6CCCNC6)nn5)ccc43)cc2OC)cn1` (stereo not drawn) [Ex. 3-6, 1-(3-Methoxy-4-((6-methoxypyridin-3-yl)methoxy)benzyl)-5-(4-(piperidin-3-yl)-1H-1,2,3-triazol-1-yl)-1H-benzo[d]imidazole], the IC50 on TrkB (setting [1]) was 0.086 µM; at TrkA, 0.175 µM.

In the case of `COc1ccc(COc2ccc(Cn3cnc4cc(C5CCNCC5)ccc43)cc2OC)cn1` [Ex. 3-8, 1-(3-Methoxy-4-((6-methoxypyridin-3-yl)methoxy)benzyl)-5-(piperidin-4-yl)-1H-benzo[d]imidazole], the results for the IC50 at TrkB (setting [1]) and on TrkA were 3.46 µM and 11.1 µM, respectively.

For the compound `COc1ccc(COc2ccc(Cn3cnc4cc(N5CCOCC5)ccc43)cc2OC)cn1` [Ex. 3-9, 4-(1-(3-Methoxy-4-((6-methoxypyridin-3-yl)methoxy)benzyl)-1H-benzo[d]imidazol-5-yl)morpholine], the IC50 on TrkB was determined as 0.257 µM; on TrkA it was 0.793 µM.

For `COc1ccc(COc2ccc(Cn3cnc4cc(N5CCC(C(C)(C)N)CC5)ccc43)cc2OC)cn1` [Ex. 3-10, 2-(1-(1-(3-Methoxy-4-((6-methoxypyridin-3-yl)methoxy)benzyl)-1H-benzo[d]imidazol-5-yl)piperidin-4-yl)propan-2-amine], the IC50 on TrkB (setting [1]) is 0.574 µM; at TrkA, 0.652 µM.

For `COc1ccc(COc2ccc(Cn3cnc4cc(N5CC6(CCNCC6)C5)ccc43)cc2OC)cn1` [Ex. 3-11, 1-(3-methoxy-4-((6-methoxypyridin-3-yl)methoxy)benzyl)-5-(2,7-diazaspiro[3.5]nonan-2-yl)-1H-benzo[d]imidazole], the results for the IC50 on TrkB (setting [1]) and at TrkA were 0.12 µM and 0.135 µM, respectively.

With `COc1ccc(COc2ccc(Cn3cnc4cc(N5CCC(N)CC5)ccc43)cc2OC)cn1` [Ex. 3-12, 1-(1-(3-Methoxy-4-((6-methoxypyridin-3-yl)methoxy)benzyl)-1H-benzo[d]imidazol-5-yl)piperidin-4-amine], the IC50 turned out to be 0.637 µM at TrkB (setting [1]) and 1.03 µM at TrkA.

For `COc1ccc(COc2ccc(Cn3cnc4cc(N5CCN(C)CC5)ccc43)cc2OC)cn1` [Ex. 3-13, 1-(3-Methoxy-4-((6-methoxypyridin-3-yl)methoxy)benzyl)-5-(4-methylpiperazin-1-yl)-1H-benzo[d]imidazole], the IC50 at TrkB (setting [1]) is 0.443 µM; at TrkA it was 1.13 µM.

Take `COc1ccc(COc2ccc(Cn3c(N)nc4cc(N5CCN(C)CC5=O)ccc43)cc2OC)cn1` [Ex. 3-14, 1-(2-Amino-1-(3-methoxy-4-((6-methoxypyridin-3-yl)methoxy)benzyl)-1H-benzo[d]imidazol-5-yl)-4-methylpiperazin-2-one]: the IC50 at TrkB (setting [1]) came to 4.37 µM; at TrkA it was 8.98 µM.

As to `COc1ccc(COc2ccc(Cn3c(N)nc4cc(-c5ccc(P(C)(C)=O)nc5)cnc43)cc2OC)cc1` [Ex. 3-16, (5-(2-Amino-3-(3-methoxy-4-((4-methoxybenzyl)oxy)benzyl)-3H-imidazo[4,5-b]pyridin-6-yl)pyridin-2-yl)dimethylphosphine oxide], the results for the IC50 on TrkB (setting [1]) and on TrkA were 0.0002 µM and 0.0005 µM, respectively.

For the compound `COc1ccc(COc2ccc(Cn3cnc4cc(N5CCC(C(C)(C)N)CC5)cnc43)cc2OC)cn1` [Ex. 3-18-1, 2-(1-(3-(3-Methoxy-4-((6-methoxypyridin-3-yl)methoxy)benzyl)-3H-imidazo[4,5-b]pyridin-6-yl)piperidin-4-yl)propan-2-amine], the IC50 at TrkB (setting [1]) came out at 0.057 µM; at TrkA it was 0.054 µM.

As to `COc1ccc(COc2ccc(Cn3cnc4cc(N5CCOCC5)cnc43)cc2OC)cn1` [Ex. 3-18-2, 4-(3-(3-Methoxy-4-((6-methoxypyridin-3-yl)methoxy)benzyl)-3H-imidazo[4,5-b]pyridin-6-yl)morpholine], the IC50 on TrkB (setting [1]) was determined as 0.031 µM; on TrkA, 0.09 µM.

In the case of `COc1ccc(COc2ccc(Cn3cnc4cc(N5CCN(C6CC6)CC5)cnc43)cc2OC)cn1` [Ex. 3-18-3, 6-(4-Cyclopropylpiperazin-1-yl)-3-(3-methoxy-4-((6-methoxypyridin-3-yl)methoxy)benzyl)-3H-imidazo[4,5-b]pyridine], the values for the half-inhibitory concentration (IC50) on TrkB (setting [1]) and on TrkA were 0.052 µM and 0.113 µM, respectively.

Take `COc1ccc(COc2ccc(Cn3cnc4cc(N5CCN6CCC5CC6)cnc43)cc2OC)cn1` [Ex. 3-18-4, 4-(3-(3-Methoxy-4-((6-methoxypyridin-3-yl)methoxy)benzyl)-3H-imidazo[4,5-b]pyridin-6-yl)-1,4-diazabicyclo[3.2.2]nonane]: the IC50 on TrkB (setting [1]) was found to be 0.349 µM; on TrkA, 0.47 µM.

With `COc1ccc(COc2ccc(Cn3cnc4cc(N5CC6(CCNCC6)C5)cnc43)cc2OC)cn1` [Ex. 3-18-5, 3-(3-Methoxy-4-((6-methoxypyridin-3-yl)methoxy)benzyl)-6-(2,7-diazaspiro[3.5]nonan-2-yl)-3H-imidazo[4,5-b]pyridine], the values for the half-inhibitory concentration (IC50) at TrkB (setting [1]) and at TrkA were 0.021 µM and 0.025 µM, respectively.

For the compound `COc1ccc(COc2ccc(Cn3cnc4cc(N5CCC(N)CC5)cnc43)cc2OC)cn1` [Ex. 3-18-6, 1-(3-(3-Methoxy-4-((6-methoxypyridin-3-yl)methoxy)benzyl)-3H-imidazo[4,5-b]pyridin-6-yl)piperidin-4-amine], the IC50 is 0.133 µM on TrkB (setting [1]) and 0.232 µM on TrkA.

As for `COc1ccc(COc2ccc(Cn3cnc4cc(N5CCC[C@H]5C(=O)O)cnc43)cc2OC)cn1` [Ex. 3-18-7, (S)-1-(3-(3-Methoxy-4-((6-methoxypyridin-3-yl)methoxy)benzyl)-3H-imidazo[4,5-b]pyridin-6-yl)pyrrolidine-2-carboxylic acid], the results for the IC50 at TrkB (setting [1]) and at TrkA were 0.013 µM and 0.008 µM, respectively.

As for `COc1ccc(COc2ccc(Cn3cnc4cc(-c5cnn(C6CCNCC6)c5)cnc43)cc2OC)cn1` [Ex. 3-19, 3-(3-Methoxy-4-((6-methoxypyridin-3-yl)methoxy)benzyl)-6-(1-(piperidin-4-yl)-1H-pyrazol-4-yl)-3H-imidazo[4,5-b]pyridine], the concentration for half-maximal inhibition (IC50) at TrkB (setting [1]) came out at 0.0009 µM; at TrkA, 0.001 µM.

For the compound `COc1cc(Cn2cnc3cc(-c4cnn(C5CCNCC5)c4)cnc32)ccc1OCc1ccc(C)nc1` [Ex. 3-20, 3-(3-Methoxy-4-((6-methylpyridin-3-yl)methoxy)benzyl)-6-(1-(piperidin-4-yl)-1H-pyrazol-4-yl)-3H-imidazo[4,5-b]pyridine], the values for the IC50 at TrkB (setting [1]) and on TrkA were 0.0006 µM and 0.0009 µM, respectively.

With `COc1ccc(COc2ccc(Cn3cnc4cc(-c5noc(C6CCNCC6)n5)cnc43)cc2OC)cn1` [Ex. 3-21, 3-(3-(3-Methoxy-4-((6-methoxypyridin-3-yl)methoxy)benzyl)-3H-imidazo[4,5-b]pyridin-6-yl)-5-(piperidin-4-yl)-1,2,4-oxadiazole], the IC50 at TrkB (setting [1]) came out at 0.024 µM; on TrkA it was 0.026 µM.

With `COc1ccc(COc2ccc(Cn3cnc4cc(-c5noc(C6CCNCC6)n5)ccc43)cc2OC)cn1` [Ex. 3-22, 3-(1-(3-Methoxy-4-((6-methoxypyridin-3-yl)methoxy)benzyl)-1H-benzo[d]imidazol-5-yl)-5-(piperidin-4-yl)-1,2,4-oxadiazole], the IC50 on TrkB (setting [1]) is 0.317 µM; at TrkA, 0.306 µM.
